Assay results taken from patent US20120309676A1, “Lantibiotic Salts” (priority 2010, published 2012).
Structures can show the parent of a compound that is named as a salt.

Columns and labels:
[1] = test system: Vancomycin-intermediate Staphylococcus aureus; test: MIC susceptibility testing, vancomycin-intermediate Staphylococcus aureus; format: cell-based
Method: (§1) Susceptibility testing with the exception of Streptococcus pneumoniae was performed by two-fold serial dilutions in Mueller Hinton Broth supplemented with 50 μg/mL Ca^2+. Susceptibility testing of S. pneumoniae was performed by two-fold serial dilutions in Brain-Heart-Infusion Broth supplemented with 50 μg/mL Ca^2+.
(§2) Modal values from up to 6 determinations

[2] = test system: Staphylococcus aureus methicillin resistant ATCC 33591; test: Mouse bacteraemia model, second experiment, IV dosing; format: in vivo; settings: for number of deaths: after 7 days, groups of 6 mice
Method: In a second experiment Groups of 6 male CD-1 (Crl.) derived mice weighing 24±2 g were used. Mice were inoculated intraperitoneally (IP) with an LD90-100 of Staphylococcus aureus methicillin resistant ATCC 33591 (1.35×10^8 CFU/mouse) in 0.5 mL of BHI broth containing 5% mucin. Example 1 was dissolved in 5% dextrose/1.5 mM potassium phosphate, pH 5.0 and doses of 1, 3, 5 and 10 mg/Kg were administered intravenously (IV) to test animals at 1 and 13 hour(s) after bacteria challenge. The dosing volume was 5 mL/Kg. Mortality was recorded once daily for 7 days.

[3] = test system: Vancomycin sensitive enterococci, E. faecium; test: MIC susceptibility testing, vancomycin sensitive enterococci (E. faecium); format: cell-based
Method: as §1, §2

[4] = test system: MRSA; test: MIC susceptibility testing, MRSA; format: cell-based, Staphylococcus aureus
Method: as §1, §2

[5] = test system: Vancomycin resistant enterococci, E. faecium; test: MIC susceptibility testing, vancomycin resistant enterococci (E. faecium); format: cell-based
Method: as §1, §2

[6] = test system: Methicillin Resistant Staphylococcus aureus (MRSA, ATCC 33591); test: Neutropaenic mouse thigh infection model; format: in vivo
Method: In vivo efficacy of compounds of the present invention in the treatment of bacterial tissue infections was evaluated using a neutropaenic mouse thigh model.
Groups of 6 male ICR mice weighing 24±2 g were used. Test animals were immunosuppressed by 2 intraperitoneal injections of cyclophosphamide, the first at 150 mg/Kg 4 days before infection (day-4) and the second at 100 mg/Kg 1 day before infection (day-1). On day 0, individual animals were inoculated intramuscularly (IM) into the right thigh of test animals with 1.15×10^8 CFU/mouse of Methicillin Resistant Staphylococcus aureus (MRSA, ATCC 33591) suspended in 100 μL of sterile PBS, pH 7.4. Vehicle and test substances were administered intravenously (IV) at a dose volume of 6 mL/Kg, 2 and 14 hours after thigh infection. Example 1 and vancomycin were dissolved in 15% hydroxypropyl-β-cyclodextrin/4.4% glucose/1.5 mM potassium phosphate buffer, pH 7.0 and administered at doses of 5, 10, 20, 30 and 40 mg/Kg. At 26 hours after inoculation, muscle of the right thigh of each test mouse was harvested. From an additional group with no treatment, muscle of the right thigh was harvested at 2 hours after inoculation for the basal CFU determination. The removed muscle tissues were then homogenized in 3-4 mL of PBS, pH 7.4 with a ceramic mortar. Homogenates of 0.1 mL were used for serial 10-fold dilutions and plated on Mueller Hinton broth in 1.5% Bacto agar for CFU determination. […] Results (mean cfu/g) are graphically represented in FIG. 2.

[7] = test system: Streptococcus pneumoniae; test: MIC susceptibility testing, S. pneumoniae (Brain-Heart-Infusion Broth); format: cell-based; settings: S. pneumoniae R33
Method: as §1, §2

[8] = test system: S. pyogenes; test: MIC susceptibility testing, S. pyogenes; format: cell-based
Method: as §1, §2

[9] = test system: Methicillin Resistant Staphylococcus aureus (MRSA, ATCC 33591); test: Neutropaenic mouse thigh infection model, further experiment; format: in vivo; settings: IV 2 and 14 h after infection, 2.5-50 mg/Kg, FIG. 3
Method: In a further experiment, groups of 6 male ICR mice weighing 24±2 g were used. Test animals were immunosuppressed by 2 intraperitoneal injections of cyclophosphamide, the first at 150 mg/Kg 4 days before infection (day-4) and the second at 100 mg/Kg 1 day before infection (day-1). On day 0, individual animals were inoculated intramuscularly (IM) into the right thigh of test animals with 1.5×10^5 CFU/mouse of Methicillin Resistant Staphylococcus aureus (MRSA, ATCC 33591) suspended in 100 μL of sterile PBS, pH 7.4. Vehicle and test substances were administered intravenously (IV) at a dose volume of 8 mL/Kg, 2 and 14 hours after thigh infection. Example 1 was dissolved in 5% dextrose/1 mM potassium phosphate, pH 5.0 and administered at doses of 2.5, 5, 10, 15, 25 and 50 mg/Kg. At 26 hours after inoculation, muscle of the right thigh of each test mouse was harvested. From an additional group with no treatment, muscle of the right thigh was harvested at 2 hours after inoculation for the basal CFU determination. The removed muscle tissues were then homogenized in 3-4 mL of PBS, pH 7.4 with a ceramic mortar. Homogenates of 0.1 mL were used for serial 10-fold dilutions and plated on Mueller Hinton broth in 1.5% Bacto agar for CFU determination.

## CC[C@H](C)[C@@H]1NC(=O)[C@@H]2NC(=O)[C@H](CC(C)C)NC(=O)[C@H](NC(=O)[C@@H]3CSC[C@@H](N)C(=O)N[C@@H](CO)C(=O)NCC(=O)N[C@@H](Cc4c[nH]c5ccccc45)C(=O)N[C@@H](C(C)C)C(=O)N3)[C@H](C)SC[C@H](NC(=O)[C@H](CCC(=O)O)NC1=O)C(=O)NCC(=O)N[C@H]1C(=O)N[C@@H](CC(C)C)C(=O)N[C@@H](C(C)C)C(=O)N[C@@H](CS[C@H]2C)C(=O)N[C@@H](C)C(=O)N[C@H](C(=O)NCc2cc(Cl)cc(Cl)c2)CS[C@H]1C [Example 1, Deoxyactagardine B (3,5-dichlorobenzylamine) monocarboxamide N-methyl glucamine salt]
[1]; S. aureus 2
  MIC: 4 µg/mL
[1]; S. aureus 26
  MIC: 4 µg/mL
[1]; S. aureus MI
  MIC: 16 µg/mL
[1]; S. aureus Mu3
  MIC: 8 µg/mL
[1]; S. aureus Mu50
  MIC: 4 µg/mL
[1]; S. aureus NJ
  MIC: 8 µg/mL
[1]; S. aureus V99
  MIC: 4 µg/mL
[2]; 1 mg/kg IV at 1 and 13 h after challenge
  number of deaths: 5
[2]; 3 mg/kg IV at 1 and 13 h after challenge
  number of deaths: 4
[2]; 5 mg/kg IV at 1 and 13 h after challenge
  number of deaths: 1
[2]; 10 mg/kg IV at 1 and 13 h after challenge
  number of deaths: 1
[2]; 1, 3, 5 and 10 mg/kg
  survival of mice after 7 days: dose-dependent incease in survival
[3]; E. faecium 19579
  MIC: 4 µg/mL
[3]; E. faecium 7754422
  MIC: <8 µg/mL
[3]; E. faecium 7865229
  MIC: 16 µg/mL
[4]; S. aureus 12232
  MIC: 4 µg/mL
[4]; S. aureus R31
  MIC: 4 µg/mL
[4]; S. aureus R33
  MIC: 4 µg/mL
[4]; S. aureus R34
  MIC: 4 µg/mL
[4]; S. aureus R36
  MIC: 4 µg/mL
[4]; S. aureus R37
  MIC: 4 µg/mL
[4]; S. aureus R39
  MIC: 4 to 8 µg/mL
[4]; S. aureus R40
  MIC: 4 to 8 µg/mL
[4]; S. aureus W71
  MIC: 8 µg/mL
[4]; S. aureus W74
  MIC: 4 µg/mL
[4]; S. aureus W82
  MIC: 4 to 8 µg/mL
[4]; S. aureus W96
  MIC: 4 to 8 µg/mL
[4]; S. aureus W97
  MIC: 4 µg/mL
[4]; S. aureus W98
  MIC: 4 to 8 µg/mL
[4]; S. aureus W99
  MIC: 4 to 8 µg/mL
[5]; E. faecium 7634337
  MIC: 16 µg/mL
[5]; E. faecium 7662769
  MIC: <16 µg/mL
[5]; E. faecium 7860190
  MIC: 4 to 8 µg/mL
[5]; E. faecium 7865532
  MIC: 16 µg/mL
[5]; E. faecium 9704998
  MIC: 8 µg/mL
[5]; E. faecium 9709024
  MIC: <16 µg/mL
[5]; E. faecium 9710577
  MIC: 16 µg/mL
[6]; IV at 5, 10, 20, 30 and 40 mg/Kg×2, 2 and 14 h after thigh infection, harvest at 26 h
  antimicrobial effect: significant antimicrobial effect
[6]; at 10 mg/kg and above, IV ×2, thigh muscle at 26 h
  reduction in CFU/g: > 1000 fold
[7]
  MIC: <16 µg/mL
[8]; S. pyogenes 7713283
  MIC: 0.06 µg/mL
[8]; S. pyogenes 7755255
  MIC: <2 µg/mL
[8]; S. pyogenes 7755441
  MIC: 0.06 µg/mL
[8]; S. pyogenes 7755584
  MIC: 0.06 to 0.125 µg/mL
[8]; S. pyogenes 7757080
  MIC: <1 µg/mL
[8]; S. pyogenes 7865253
  MIC: 0.06 µg/mL
[8]; S. pyogenes 7865289
  MIC: 0.06 µg/mL
[8]; S. pyogenes 7865844
  MIC: 8 µg/mL
[8]; S. pyogenes GRL05041
  MIC: <1 µg/mL
[8]; S. pyogenes GRL05042
  MIC: 0.06 µg/mL
[8]; S. pyogenes GRL05043
  MIC: <8 µg/mL
[8]; S. pyogenes GRL05045
  MIC: <4 µg/mL
[8]; S. pyogenes GRL05046
  MIC: 0.06 µg/mL
[9]
  bacterial counts in the thigh tissue: dose dependent reduction
